Assay [1] concerns the target T1, Bcl-2-related protein A1 (Mus musculus, UniProt Q07440).
T1 sequence (Q07440 whole entry): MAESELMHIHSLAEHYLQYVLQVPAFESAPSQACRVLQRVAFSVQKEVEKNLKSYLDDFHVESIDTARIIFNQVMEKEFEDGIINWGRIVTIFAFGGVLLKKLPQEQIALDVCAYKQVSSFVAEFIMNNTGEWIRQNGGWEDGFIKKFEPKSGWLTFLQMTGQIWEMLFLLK
Nature of the assay: Bfl-1 binding inhibitors, SAR follow-up, biochemical, fluorescence polarization (AID 1070). Background: Polarisation of emitted light reports the rotation of a fluorescent probe.

Assay [2] deals with T1, Bcl-2-related protein A1. The assay is described as follows: Bfl-1 inhibitors blocking BH3 peptide binding, confirmation, biochemical, TR-FRET, mouse Bfl-1 (AID 621).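 Further: TR-FRET binding of GST-Bfl-1 to FITC-labelled Bid peptide via terbium antibody.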 For orientation: Time-resolved FRET reads energy transfer from a long-lived donor to a nearby acceptor.
For assay [3], the target named is Glyceraldehyde-3-phosphate dehydrogenase (Homo sapiens, UniProt P04406).
Sequence of Glyceraldehyde-3-phosphate dehydrogenase (P04406 whole entry): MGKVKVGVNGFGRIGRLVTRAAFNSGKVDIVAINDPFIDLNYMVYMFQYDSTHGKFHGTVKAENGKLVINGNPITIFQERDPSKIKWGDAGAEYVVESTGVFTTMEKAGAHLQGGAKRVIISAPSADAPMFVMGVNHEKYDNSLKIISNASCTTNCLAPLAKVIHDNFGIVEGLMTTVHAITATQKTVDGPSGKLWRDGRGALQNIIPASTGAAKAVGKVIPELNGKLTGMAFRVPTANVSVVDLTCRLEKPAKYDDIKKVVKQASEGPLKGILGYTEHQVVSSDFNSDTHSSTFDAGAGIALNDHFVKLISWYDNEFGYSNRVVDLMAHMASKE
The target of assay [4] is T2, Tyrosine-protein phosphatase non-receptor type 7 (Homo sapiens, UniProt P35236).
T2 sequence (P35236 whole entry): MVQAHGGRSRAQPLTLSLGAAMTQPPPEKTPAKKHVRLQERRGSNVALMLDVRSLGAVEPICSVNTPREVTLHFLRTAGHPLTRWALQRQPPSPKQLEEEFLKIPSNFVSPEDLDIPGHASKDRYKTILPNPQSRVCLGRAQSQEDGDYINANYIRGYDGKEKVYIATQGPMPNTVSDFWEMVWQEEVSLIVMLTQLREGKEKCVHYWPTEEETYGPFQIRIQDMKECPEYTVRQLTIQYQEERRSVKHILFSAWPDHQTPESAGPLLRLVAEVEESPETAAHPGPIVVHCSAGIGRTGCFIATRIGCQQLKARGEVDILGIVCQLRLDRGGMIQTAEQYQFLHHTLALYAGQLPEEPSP
The assay is described as follows: inhibitors of human HePTP phosphatase, […], biochemical, absorbance, leukemia target (AID 521). The assay is classed as functional.

The nature of assay [5]: inhibitors of intracellular T. cruzi replication, confirmation, NIH3T3 host cells, beta-gal luminescence (AID 2044).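 Further: intracellular parasites grown in NIH/3T3 mouse fibroblasts as host cells; luminescent beta-galactosidase reporter signal from transgenic T. cruzi replicating inside host cells; inhibitors lower the luminescence signal.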 The assay is classed as functional, cell-based.
Assay [6] in a line: cytotoxicity toward NIH3T3 fibroblasts, dose response, counter-screen, cell-based, ATP luminescence, mouse fibroblasts (AID 2010).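 Further: cells exposed to compound for about 90 hours before reading.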 The assay is classed as functional. In general terms: A counterscreen serves to expose hits that act by an unwanted route or on another target.
A further assay deals with Fatty acid synthase (Homo sapiens, UniProt P49327). Nature of the assay: FAS thioesterase domain inhibitors, dose response, biochemical, kinetic fluorescence intensity (AID 624326).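 Further: rate of fluorescence rise from hydrolysis of a fluorogenic O-methyl fluorescein ester substrate.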 The assay is classed as functional.
Sequence of Fatty acid synthase (P49327 whole entry, the tested form may be a part): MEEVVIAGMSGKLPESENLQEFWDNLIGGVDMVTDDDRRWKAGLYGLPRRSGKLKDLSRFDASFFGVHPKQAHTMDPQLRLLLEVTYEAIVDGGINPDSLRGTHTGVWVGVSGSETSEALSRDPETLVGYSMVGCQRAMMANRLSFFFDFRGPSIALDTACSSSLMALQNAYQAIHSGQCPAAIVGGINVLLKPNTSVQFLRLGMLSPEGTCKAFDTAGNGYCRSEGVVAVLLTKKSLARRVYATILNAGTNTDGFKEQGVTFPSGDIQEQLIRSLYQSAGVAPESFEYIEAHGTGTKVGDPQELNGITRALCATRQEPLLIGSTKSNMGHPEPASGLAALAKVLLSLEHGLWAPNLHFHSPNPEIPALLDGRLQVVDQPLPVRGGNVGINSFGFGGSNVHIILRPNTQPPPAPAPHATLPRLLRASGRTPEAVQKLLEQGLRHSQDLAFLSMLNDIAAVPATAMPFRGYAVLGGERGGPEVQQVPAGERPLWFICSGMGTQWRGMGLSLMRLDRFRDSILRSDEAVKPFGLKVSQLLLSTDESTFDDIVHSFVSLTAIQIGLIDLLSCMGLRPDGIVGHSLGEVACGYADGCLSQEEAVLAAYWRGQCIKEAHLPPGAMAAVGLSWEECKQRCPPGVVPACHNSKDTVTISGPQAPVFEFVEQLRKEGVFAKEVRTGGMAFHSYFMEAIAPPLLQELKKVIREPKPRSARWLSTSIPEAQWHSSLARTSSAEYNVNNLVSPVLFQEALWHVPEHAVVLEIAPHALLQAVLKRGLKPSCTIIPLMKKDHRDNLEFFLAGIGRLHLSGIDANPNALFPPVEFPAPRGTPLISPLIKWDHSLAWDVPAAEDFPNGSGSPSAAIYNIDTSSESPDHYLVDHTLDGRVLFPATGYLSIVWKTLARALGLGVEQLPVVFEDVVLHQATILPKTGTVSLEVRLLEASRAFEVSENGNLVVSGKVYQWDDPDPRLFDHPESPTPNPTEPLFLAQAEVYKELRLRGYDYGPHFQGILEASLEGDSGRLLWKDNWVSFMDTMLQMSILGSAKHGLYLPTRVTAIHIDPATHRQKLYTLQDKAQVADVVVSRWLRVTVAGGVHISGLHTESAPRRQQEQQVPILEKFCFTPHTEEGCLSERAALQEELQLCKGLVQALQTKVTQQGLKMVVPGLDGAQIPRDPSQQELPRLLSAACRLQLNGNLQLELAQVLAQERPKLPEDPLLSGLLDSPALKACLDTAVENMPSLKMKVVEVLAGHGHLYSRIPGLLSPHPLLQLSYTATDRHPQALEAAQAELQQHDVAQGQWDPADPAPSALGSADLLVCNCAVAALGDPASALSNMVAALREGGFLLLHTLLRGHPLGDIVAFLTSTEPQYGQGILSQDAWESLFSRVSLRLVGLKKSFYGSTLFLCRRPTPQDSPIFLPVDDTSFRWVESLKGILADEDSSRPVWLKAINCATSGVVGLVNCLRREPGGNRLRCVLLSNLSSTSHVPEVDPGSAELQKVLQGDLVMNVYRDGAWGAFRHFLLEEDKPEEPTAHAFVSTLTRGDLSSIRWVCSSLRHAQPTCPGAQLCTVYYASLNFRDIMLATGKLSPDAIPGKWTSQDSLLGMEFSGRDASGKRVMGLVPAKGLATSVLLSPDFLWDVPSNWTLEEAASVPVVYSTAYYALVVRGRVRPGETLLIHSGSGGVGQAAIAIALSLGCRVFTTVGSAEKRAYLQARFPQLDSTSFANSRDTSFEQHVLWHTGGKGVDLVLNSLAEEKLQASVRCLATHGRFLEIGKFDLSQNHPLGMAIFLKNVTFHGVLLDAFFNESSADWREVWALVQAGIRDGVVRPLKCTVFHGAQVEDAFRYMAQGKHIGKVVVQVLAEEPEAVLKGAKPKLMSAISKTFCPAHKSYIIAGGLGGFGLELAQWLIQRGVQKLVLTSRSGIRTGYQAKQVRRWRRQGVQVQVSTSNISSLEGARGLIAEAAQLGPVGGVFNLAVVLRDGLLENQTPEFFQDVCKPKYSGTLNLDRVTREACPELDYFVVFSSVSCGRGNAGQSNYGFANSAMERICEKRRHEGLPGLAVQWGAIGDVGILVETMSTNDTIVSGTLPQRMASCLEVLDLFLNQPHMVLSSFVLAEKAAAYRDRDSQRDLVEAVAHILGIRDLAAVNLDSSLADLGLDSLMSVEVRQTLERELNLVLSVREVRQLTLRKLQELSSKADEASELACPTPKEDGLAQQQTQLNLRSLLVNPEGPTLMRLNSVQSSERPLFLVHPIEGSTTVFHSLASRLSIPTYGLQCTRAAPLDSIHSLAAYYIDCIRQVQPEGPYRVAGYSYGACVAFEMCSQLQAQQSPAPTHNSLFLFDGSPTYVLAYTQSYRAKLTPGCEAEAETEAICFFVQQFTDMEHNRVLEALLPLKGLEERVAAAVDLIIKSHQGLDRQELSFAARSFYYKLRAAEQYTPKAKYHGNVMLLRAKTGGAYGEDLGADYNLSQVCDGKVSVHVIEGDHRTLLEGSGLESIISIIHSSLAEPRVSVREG
Assay [7] deals with Voltage-gated inwardly rectifying potassium channel KCNH2 (Homo sapiens, UniProt Q12809). The assay is described as follows: hERG protection from proarrhythmic block, potency, dose response, cell-based, thallium flux (AID 2121). The assay is classed as ADME.
Sequence of Voltage-gated inwardly rectifying potassium channel KCNH2 (Q12809 whole entry): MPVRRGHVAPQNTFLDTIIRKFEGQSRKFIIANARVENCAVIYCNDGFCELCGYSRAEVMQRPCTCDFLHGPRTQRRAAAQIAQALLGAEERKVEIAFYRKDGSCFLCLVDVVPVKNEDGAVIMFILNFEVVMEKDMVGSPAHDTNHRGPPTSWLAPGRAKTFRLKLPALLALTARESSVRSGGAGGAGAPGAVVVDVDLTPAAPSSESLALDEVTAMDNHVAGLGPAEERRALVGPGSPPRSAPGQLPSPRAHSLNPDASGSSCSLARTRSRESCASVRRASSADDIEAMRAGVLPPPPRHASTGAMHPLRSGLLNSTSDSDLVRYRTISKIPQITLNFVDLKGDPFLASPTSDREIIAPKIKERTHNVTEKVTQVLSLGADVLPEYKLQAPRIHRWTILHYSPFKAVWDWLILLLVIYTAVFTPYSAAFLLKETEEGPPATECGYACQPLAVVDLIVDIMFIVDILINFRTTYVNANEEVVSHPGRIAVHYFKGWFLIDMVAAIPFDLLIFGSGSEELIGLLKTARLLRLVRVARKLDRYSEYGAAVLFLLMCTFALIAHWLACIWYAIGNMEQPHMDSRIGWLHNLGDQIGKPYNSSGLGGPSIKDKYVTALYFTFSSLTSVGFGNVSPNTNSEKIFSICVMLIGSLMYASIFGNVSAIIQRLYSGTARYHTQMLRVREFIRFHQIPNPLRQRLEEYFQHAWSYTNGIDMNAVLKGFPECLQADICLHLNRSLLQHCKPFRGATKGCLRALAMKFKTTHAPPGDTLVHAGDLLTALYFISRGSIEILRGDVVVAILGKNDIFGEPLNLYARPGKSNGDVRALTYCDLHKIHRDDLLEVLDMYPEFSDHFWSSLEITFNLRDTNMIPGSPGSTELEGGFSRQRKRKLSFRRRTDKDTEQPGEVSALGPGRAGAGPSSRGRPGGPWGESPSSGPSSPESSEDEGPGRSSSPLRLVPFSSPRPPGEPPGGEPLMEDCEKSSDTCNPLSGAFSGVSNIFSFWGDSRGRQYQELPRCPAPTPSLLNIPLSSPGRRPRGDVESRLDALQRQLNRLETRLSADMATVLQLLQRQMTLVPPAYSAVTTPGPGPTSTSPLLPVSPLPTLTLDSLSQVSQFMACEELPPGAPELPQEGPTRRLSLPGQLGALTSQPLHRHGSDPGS
Assay [8] has as its target T3, Mannose-6-phosphate isomerase (Homo sapiens, UniProt P34949).
T3 sequence (P34949 whole entry): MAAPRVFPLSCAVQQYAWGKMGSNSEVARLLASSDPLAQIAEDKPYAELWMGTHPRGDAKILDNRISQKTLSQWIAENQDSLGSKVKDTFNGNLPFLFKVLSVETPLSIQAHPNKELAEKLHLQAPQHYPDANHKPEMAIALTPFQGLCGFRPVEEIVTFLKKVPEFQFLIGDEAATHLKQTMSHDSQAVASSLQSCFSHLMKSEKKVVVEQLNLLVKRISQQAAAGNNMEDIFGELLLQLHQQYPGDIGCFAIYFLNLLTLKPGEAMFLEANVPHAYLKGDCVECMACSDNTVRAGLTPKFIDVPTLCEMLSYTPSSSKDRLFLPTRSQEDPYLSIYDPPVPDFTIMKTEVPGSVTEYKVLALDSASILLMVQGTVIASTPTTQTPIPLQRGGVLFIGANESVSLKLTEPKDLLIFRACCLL
The assay is described as follows: human PMI inhibitors, high substrate, primary screen, biochemical, fluorescence intensity, high mannose 6-phosphate (AID 1220).

The next assay deals with H9c2. The assay is described as follows: cells. The assay is classed as functional, cell-based. The following applies: Rattus norvegicus, H9c2, Myocardium.
For assay [9], the target named is T4, Heat shock factor protein 1 (Mus musculus, UniProt P38532).
T4 sequence (P38532 whole entry): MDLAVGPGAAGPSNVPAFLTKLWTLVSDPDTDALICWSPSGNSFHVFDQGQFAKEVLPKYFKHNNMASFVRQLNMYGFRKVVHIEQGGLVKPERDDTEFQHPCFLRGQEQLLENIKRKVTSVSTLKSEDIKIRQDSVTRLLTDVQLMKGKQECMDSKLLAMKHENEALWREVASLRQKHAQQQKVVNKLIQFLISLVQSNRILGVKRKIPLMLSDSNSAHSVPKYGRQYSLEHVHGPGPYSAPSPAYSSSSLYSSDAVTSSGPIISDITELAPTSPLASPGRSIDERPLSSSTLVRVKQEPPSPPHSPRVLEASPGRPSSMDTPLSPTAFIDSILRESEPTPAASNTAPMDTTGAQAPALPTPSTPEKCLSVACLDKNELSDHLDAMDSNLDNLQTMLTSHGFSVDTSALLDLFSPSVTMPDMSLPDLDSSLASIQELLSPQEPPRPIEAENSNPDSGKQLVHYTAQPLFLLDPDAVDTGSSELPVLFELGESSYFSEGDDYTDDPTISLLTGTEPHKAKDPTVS
Nature of the assay: HSF1 potentiators in luciferase reporter cells, confirmation, cell-based, NIH3T3, luminescence, dose retest (AID 435004).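 Further: stress induced by proteasome inhibitor MG132 added 30 min after compound; luciferase reporter driven by HSF1 response element in NIH3T3 cells; actives raise luminescence as potentiators of the MG132 stress response.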 The assay is classed as functional.

Assay [10] deals with T5, Replicative DNA helicase DnaB (Mycobacterium tuberculosis, UniProt P9WMR3).
T5 sequence (P9WMR3 whole entry): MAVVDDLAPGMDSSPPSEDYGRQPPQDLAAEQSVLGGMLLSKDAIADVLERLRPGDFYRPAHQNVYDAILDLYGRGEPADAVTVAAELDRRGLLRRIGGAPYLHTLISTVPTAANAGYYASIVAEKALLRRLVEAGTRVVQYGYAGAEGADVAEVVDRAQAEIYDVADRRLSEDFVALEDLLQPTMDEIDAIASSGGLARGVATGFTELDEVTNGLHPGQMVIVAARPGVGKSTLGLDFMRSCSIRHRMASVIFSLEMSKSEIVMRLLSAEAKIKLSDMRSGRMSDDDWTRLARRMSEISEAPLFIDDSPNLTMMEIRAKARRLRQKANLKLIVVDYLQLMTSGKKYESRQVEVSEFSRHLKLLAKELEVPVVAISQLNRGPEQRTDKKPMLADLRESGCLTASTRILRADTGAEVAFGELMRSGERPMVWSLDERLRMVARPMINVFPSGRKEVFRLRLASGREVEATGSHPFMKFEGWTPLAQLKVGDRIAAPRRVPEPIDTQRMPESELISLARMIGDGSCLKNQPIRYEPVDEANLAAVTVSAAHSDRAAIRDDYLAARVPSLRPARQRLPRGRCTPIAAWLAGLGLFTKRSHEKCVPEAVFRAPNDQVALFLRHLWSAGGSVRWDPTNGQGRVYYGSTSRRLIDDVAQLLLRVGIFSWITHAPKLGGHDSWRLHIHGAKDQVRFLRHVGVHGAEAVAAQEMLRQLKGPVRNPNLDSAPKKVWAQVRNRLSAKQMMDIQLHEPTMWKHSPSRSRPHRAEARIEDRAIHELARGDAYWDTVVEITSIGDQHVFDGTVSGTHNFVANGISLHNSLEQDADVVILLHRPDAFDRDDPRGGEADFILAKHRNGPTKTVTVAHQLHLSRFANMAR
The assay is described as follows: DnaB intein splicing inhibitors, dose response, biochemical, cell-free fluorescence (AID 449749). The assay is classed as functional.

Assay [11] addresses T6, Rac GTPase-activating protein 1 (Homo sapiens, UniProt Q9H0H5).
T6 sequence (Q9H0H5 whole entry): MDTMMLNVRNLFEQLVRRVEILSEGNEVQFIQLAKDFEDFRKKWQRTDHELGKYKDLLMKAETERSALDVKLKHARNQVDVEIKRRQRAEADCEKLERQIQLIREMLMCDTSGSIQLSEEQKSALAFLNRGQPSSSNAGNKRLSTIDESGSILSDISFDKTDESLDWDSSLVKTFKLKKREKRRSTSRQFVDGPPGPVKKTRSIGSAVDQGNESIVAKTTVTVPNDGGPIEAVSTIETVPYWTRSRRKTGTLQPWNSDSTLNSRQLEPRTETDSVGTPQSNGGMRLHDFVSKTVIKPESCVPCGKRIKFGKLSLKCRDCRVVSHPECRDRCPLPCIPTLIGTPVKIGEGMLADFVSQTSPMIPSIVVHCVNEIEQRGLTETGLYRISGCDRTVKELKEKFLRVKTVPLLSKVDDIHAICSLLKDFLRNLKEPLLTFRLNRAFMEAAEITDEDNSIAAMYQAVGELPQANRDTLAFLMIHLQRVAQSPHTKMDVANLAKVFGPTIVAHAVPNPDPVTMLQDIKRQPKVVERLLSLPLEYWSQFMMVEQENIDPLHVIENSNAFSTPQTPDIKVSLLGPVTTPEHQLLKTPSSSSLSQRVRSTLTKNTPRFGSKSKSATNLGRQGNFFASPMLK
Nature of the assay: MgcRacGAP GTPase-activating activity inhibitors, confirmation, biochemical, ADP Hunter fluorescence, primary and confirmatory (AID 624330). The assay is classed as functional.

For another assay, the target named is Genome polyprotein (dengue virus type 2, UniProt P29990). The assay is described as follows: Dengue-2 NS5 methyltransferase inhibitors, primary screen, biochemical, confirmation dose response (AID 588689). The assay is classed as functional.
Sequence of Genome polyprotein (P29990 2492-3391 limits assumed): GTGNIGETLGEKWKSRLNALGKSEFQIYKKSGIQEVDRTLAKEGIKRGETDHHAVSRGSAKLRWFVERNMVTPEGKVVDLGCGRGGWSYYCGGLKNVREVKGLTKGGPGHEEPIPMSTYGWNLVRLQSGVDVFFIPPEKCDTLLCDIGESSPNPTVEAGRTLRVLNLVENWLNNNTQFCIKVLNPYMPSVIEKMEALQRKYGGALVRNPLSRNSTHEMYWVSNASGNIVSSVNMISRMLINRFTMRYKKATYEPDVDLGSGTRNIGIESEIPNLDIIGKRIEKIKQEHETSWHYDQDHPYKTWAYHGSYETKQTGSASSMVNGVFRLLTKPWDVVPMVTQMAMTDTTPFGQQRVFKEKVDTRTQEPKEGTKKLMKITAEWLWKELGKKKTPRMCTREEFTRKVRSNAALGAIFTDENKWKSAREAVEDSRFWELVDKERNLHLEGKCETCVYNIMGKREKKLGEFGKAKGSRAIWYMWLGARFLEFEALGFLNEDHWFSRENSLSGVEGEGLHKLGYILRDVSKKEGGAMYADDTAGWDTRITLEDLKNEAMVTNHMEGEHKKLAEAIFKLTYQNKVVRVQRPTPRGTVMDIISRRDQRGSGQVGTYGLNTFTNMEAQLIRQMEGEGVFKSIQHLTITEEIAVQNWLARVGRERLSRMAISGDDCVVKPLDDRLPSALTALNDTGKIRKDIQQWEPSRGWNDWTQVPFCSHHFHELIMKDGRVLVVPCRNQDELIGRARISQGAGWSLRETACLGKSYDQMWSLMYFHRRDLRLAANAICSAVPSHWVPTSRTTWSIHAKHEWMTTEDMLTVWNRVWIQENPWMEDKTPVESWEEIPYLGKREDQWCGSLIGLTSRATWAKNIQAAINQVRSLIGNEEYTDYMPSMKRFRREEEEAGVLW
A further assay relates to Vero. Nature of the assay: Vero cell cytotoxicity, cytotoxicity control for flavivirus capping enzyme inhibitors (AID 588742). The assay is classed as functional. The following applies: Chlorocebus sabaeus.
In another assay the target is T7, Protein RecA (Mycobacterium tuberculosis, UniProt P9WHJ3).
T7 sequence (P9WHJ3 whole entry): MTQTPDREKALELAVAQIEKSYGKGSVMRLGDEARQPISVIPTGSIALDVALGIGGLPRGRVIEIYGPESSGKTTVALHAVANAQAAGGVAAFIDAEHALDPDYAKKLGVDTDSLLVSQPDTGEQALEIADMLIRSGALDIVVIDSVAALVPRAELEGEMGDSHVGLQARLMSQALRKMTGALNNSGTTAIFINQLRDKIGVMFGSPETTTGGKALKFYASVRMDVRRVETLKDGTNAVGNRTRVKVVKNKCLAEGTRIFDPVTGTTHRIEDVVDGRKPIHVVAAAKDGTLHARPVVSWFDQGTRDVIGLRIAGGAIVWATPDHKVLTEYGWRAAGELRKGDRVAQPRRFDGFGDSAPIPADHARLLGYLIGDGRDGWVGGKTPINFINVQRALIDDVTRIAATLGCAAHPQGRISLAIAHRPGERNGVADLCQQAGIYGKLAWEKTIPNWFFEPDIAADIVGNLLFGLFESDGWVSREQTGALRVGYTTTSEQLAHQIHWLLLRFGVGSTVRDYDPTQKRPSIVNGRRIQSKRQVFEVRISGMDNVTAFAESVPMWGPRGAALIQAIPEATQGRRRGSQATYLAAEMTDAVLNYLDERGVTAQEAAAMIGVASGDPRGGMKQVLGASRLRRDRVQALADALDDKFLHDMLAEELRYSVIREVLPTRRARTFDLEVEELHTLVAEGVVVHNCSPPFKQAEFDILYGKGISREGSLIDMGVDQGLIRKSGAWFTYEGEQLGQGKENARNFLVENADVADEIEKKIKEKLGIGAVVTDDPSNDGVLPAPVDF
Nature of the assay: Fluorescence Cell-Free Homogeneous Dose Retest to Identify Inhibitors of RecA-Intein Splicing Activity. [Related pubchem assays (depositor defined):AID2097, AID2223, AID489010, AID492950]. The assay is classed as functional.

Activity calls are given as the source filed them. A value given as a limit tells only on which side of the number the result lay.

For the compound `O=C1C(Cl)=C(N2CCCC2)C(=O)N1c1ccc(Cl)c(Cl)c1`, the IC50 (on Bcl-2-related protein A1 [1]; at Bcl-2-related protein A1 [2]; in [3]) was > 100 µM (not active) each time.

Regarding `Cc1ccc(-n2nnc(-c3cnc4ccccc4c3)n2)cc1`, the IC50 at Bcl-2-related protein A1 [1] and on Bcl-2-related protein A1 [2] was > 100 µM (not active) in each case.

Turning to `CNC(=O)N(c1ccccc1)c1ccccc1`, in [4], the IC50 is > 100 µM (not active).

As for `CCOC(=O)N1CCN(S(=O)(=O)c2ccc(C(=O)N(CCN(C)C)c3nc4ccc(Cl)cc4s3)cc2)CC1`, the EC50 in “cells” was 0.07 µM (active); in [5] it was < 0.1 µM (active); in assay [6], > 60 µM (not active).

For the compound `Cc1cccc(N2CCN(C(=O)CNC(=O)c3cccc([N+](=O)[O-])c3)CC2)c1C`, the half-maximal inhibitory concentration (IC50) on Fatty acid synthase was 1.51 µM (active). Further, the 50% effective concentration (EC50) in [7] was 0.38 µM (active).

Consider `Cc1ccsc1C(=O)C1CCCN(Cc2c(C)nn(C(C)C)c2C)C1` (centres undefined), for which the EC50 in “cells” is 0.008 µM (active); in assay [5], < 0.1 µM (active); in [6], > 60 µM (not active).

As to `Fc1ccc(NC(S)=Nc2ccc3nccnc3c2)cc1`, the IC50 was > 50 µM (not active) in assay [8] and 22.5 µM (active) with H9c2.

For `FC(F)(F)c1cnc2c(c1)nc(S)n2-c1ccc(Cl)cc1`, in assay [7], the EC50 was 4.84 µM (active).

Regarding `COc1ccc2c(c1)-c1nc(/N=C/c3c(O)ccc4ccccc34)sc1CC2`, the EC50 is > 260 µM (inactive) in [9] and > 380 µM (inconclusive) on Protein RecA. In addition, the AC50 in assay [10] is 40.8 µM (active). The values for the concentration for half-maximal inhibition (IC50) (in assay [11]; on Genome polyprotein; in [8]) were 22.2 µM (active), 6.25 µM (active) and 13 µM (active), respectively. Besides, the cytotoxic concentration (CC50) in the assay on Vero is > 40 µM (active).

By IC50 is commonly meant the concentration that inhibits the measured activity by half. What is called EC50 is the concentration needed to bring the measured effect to its halfway point. Broadly, the AC50 is the midpoint of the concentration-response curve, whichever way the signal moves. The CC50 is the concentration at which the toxic effect on the cells reaches its halfway point.
